A value given as a limit tells only on which side of the number the result lay.

Data set [1] deals with T1, AR with coactivator ARA70 (Homo sapiens, UniProt P10275).
T1 construct: expressed in transfected cells; host or cells: DU145
T1 sequence (P10275 1-920): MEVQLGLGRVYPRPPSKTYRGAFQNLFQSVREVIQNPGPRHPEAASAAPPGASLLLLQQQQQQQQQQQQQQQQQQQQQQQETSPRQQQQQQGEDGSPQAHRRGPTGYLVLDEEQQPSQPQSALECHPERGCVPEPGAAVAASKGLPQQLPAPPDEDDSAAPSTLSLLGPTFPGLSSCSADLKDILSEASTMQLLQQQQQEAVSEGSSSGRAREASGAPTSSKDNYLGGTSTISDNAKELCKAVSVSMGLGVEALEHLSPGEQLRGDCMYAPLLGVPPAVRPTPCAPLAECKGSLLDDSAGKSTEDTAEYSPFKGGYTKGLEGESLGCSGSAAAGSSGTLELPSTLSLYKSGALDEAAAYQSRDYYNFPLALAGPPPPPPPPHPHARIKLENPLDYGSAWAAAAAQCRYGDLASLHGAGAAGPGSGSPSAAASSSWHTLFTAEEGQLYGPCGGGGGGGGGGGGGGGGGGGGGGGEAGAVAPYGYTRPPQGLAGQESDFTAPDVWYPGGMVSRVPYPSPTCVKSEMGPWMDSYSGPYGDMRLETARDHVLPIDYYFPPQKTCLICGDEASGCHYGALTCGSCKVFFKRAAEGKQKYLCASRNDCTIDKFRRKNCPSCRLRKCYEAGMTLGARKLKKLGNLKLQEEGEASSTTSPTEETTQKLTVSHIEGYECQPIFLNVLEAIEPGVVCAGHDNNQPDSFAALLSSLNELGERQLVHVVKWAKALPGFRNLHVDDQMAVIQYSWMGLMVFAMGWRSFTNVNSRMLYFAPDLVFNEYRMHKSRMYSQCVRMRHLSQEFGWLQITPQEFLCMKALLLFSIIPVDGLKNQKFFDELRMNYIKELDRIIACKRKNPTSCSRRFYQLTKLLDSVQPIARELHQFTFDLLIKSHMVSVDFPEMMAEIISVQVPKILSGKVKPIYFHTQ
In words: ARA70 enhancement of AR transactivation, MMTV-Luc in DU145 cells with pSG5-AR and pSG5-ARA70. The settings on record: DU145, pSG5-AR + MMTV-Luc with or without pSG5-ARA70. It is filed as cell-based. As for the experimental part: (§1) Cell Culture, Transfection, and Reporter Gene Assay. The human prostate cancer cell lines, LNCaP, PC-3, and DU145, and non-prostate cancer cell line COS-1 were maintained in RPMI or Dulbecco's modified Eagle's medium (DMEM) (Life Technologies) supplemented with 10% fetal bovine serum (FBS). Transfections and luciferase (Luc) assays were performed as previously described (Miyamoto, H., Yeh, S., Wilding, G. & Chang, C. (1998) Proc. Natl. Acad. Sci. USA 95, 7379-7384; Miyamoto, H., Rahman, M., Takatera, H., Kang, H.-Y., Yeh, S., Chang, H.-C., Nishimura, K., Fujimoto, N. & Chang, C. (2002) J. Biol. Chem. 277, 4609-4617). Briefly, cells seeded to reach a density of 50-60% confluence in 12 well tissue culture plates were transfected with 1.5 μg of DNA according to “SuperFect transfection” instructions (Qiagen). After 2-3 h incubation, cells were treated with medium supplemented with charcoal-stripped FBS containing either ethanol or ligands for 24 h. The cells were then harvested and whole cell extracts were used for Luc assay. The Luc activity was determined using a Dual-Luciferase Reporter Assay System (Promega) and luminometer.
The effects of ADEK on the DHT-induced transcriptional activity of AR was examined in COS-1 or LNCaP cells transfected with MMTV-Luc. The pSG5-AR was co-transfected in COS-1 cells. […] Values were obtained from the mean±SD of at least three determinations. […]

Another data set concerns the target T2, wild-type AR (Homo sapiens, UniProt P10275).
T2 sequence (P10275 1-920): T1 sequence (P10275 1-920)
The data set is described as follows: AR transcriptional activity (androgenic activity), MMTV-Luc reporter in PC-3 cells transfected with wild-type AR. Type of data set: cell-based. Details: expressed in transfected cells; host or cells: PC-3. The settings on record: PC-3, wild-type AR plasmid + MMTV-Luc, compound at 1000 nM, 24 h. As for the experimental part: as §1
Anti-DHT Effect of DHEA Derivatives with Low Androgenic Activity on AR Transcription. Test compounds as antiandrogenic compounds, were characterized by analysis of their ability to induce AR transcriptional activity in the AR-negative PC-3 cell line. The Luc activity was determined in the cell extracts with transient transfection of wild-type AR plasmid and androgen response element-reporter plasmid (mouse mammary tumor virus (MMTV)-Luc). After transfection, the cells were treated with various compounds at 0.1-1,000 nM.
To accomplish these studies, PC-3 cells were transfected with the wild-type AR expression plasmid pSG5-AR and MMTV-Luc. […] The Luc activity was measured relative to that of ethanol treatment (set as 1-fold). Values from the mean±SD of at least three determinations were used. PC-3 cells were transfected with the pSG5-AR and MMTV-Luc. […] Values from the mean±SD of at least three determinations were obtained.

`CC(=O)O[C@H]1C=C[C@@]2(C)C(=CC[C@@H]3[C@@H]2CC[C@@]2(C)[C@H]3CCC23OCCO3)C1` [ADEK, 3β-acetoxy-17,17-ethylenedioxyandrosta-1,5-diene] had a melting point of 105 to 106 °C. In addition, the “enhancement of AR transactivation by ARA70 in the presence of compound” value in data set [1] is on record as less than 2 fold. Further, the “induction on AR transcription as compared to mock treatment” value at wild-type AR is given as “marginal induction”.

By melting point is commonly meant the temperature, or range, at which the solid turns liquid.
